≈ marks a conversion by molar mass, not a printed value.
How the values were obtained:
[1] = tested on: E. coli BW25113; assay: Minimum inhibitory concentration (MIC) of DOX for E. coli BW25113 ancestor and end-point isolates; assay type: cell-based
Protocol: Experimental protocol. Five populations of E. coli were adapted to DOX in flasks to identify the selection gradient for adaptation to DOX. On the first day, six different colonies were used to inoculate control and five populations containing fresh media. The growth media for E. coli was Lysogeny broth (LB; 10 g/l tryptone, 5 g/l yeast extract, 5 g/l sodium chloride). The following day, each population was transferred to fresh media containing 1 μg/ml DOX with 100-fold dilutions. The fresh media containing desired DOX concentration was prepared by appropriate dilution of DOX stock solution. The stock solution was prepared by dissolving DOX (Tokyo Chemical Industry Co., LTD, Japan) in water, followed by filter sterilization through a 0.22 μm filter (Millex-GP, Millipore, Bedford, MA). The following day, each population was transferred to three tubes containing 1×, 1.5×, and 2× of the current DOX concentration. Hereafter, each population with the best growth was transferred into three new tubes while the control population was propagated in fresh media until twice the DOX clinical breakpoint (16 μg/ml) was reached. In a similar way, on the first day of serial transfer of E. coli to DOX in microdroplets, four to six different colonies were used to inoculate control and three to five populations containing fresh media. The following day, the growth media containing a starting size of ˜2.6×10^6 cells/ml was prepared for each population through appropriate dilution of overnight culture. Fluorinated oil (Novec 7500, 3M, St Paul, MN) with 1.5 w/w % surfactants (Pico-Surf 1™, Sphere Fluidics, Cambridge, UK) was the continuous phase while the growth media containing E. coli was the dispersed phase. These prepared continuous and dispersed phases were injected into four to six microfluidic chips using twelve-multi channel syringe pumps (New Era Pump Systems, Farmingdale, NY) with determined flow rates. More than 800 μl droplets for each population were collected in either a 1.5 ml microfuge tube or a 50 ml tube for the incubation at 37° C. After incubation for 24 h, these droplets were chemically broken with a demulsifier (1H, 1H, 2H, 2H-Perfluorooctanol, >97%, Alfa Aesar, Ward Hill, MA). After OD measurement, cells were propagated by dilution in fresh growth media containing higher DOX concentrations until a concentration of 16 μg/ml. Experiment images were captured using a bright-field inverted microscope (Eclipse Ti2, Nikon, Japan) with a mounted high-speed camera (Phantom V7.2).
At the end of the experiment, individual end-point isolates were isolated randomly by streaking the entire population onto non-selective, nutrient-rich agar plates. End point isolates are defined as randomly selected, independent colonies derived from an evolved population. Since evolved populations are diverse, each end point isolate could potentially have different genotypes. A minimum of three end-point isolates was subjected to whole genome sequencing from each experimental evolution study. In addition, total genomic DNA for each evolved population was isolated and subjected to metagenomic analysis to identify the allelic frequency in the final populations (Dataset S1-S6). The populations were sequenced to achieve at least 100× coverage and a threshold of 5% was used to identify mutations. Both serial transfer and microdroplet populations identified the well-known adaptive alleles marR, acrR, rpsJ and envZ^32-35 as well as the movement of an insertion element IS186 into the upstream regulatory region of the gene encoding the Lon protease (FIG. 17). […] Both methods clearly implicated regulation of the AcrAB-TolC as the fundamental driver for DOX resistance, but there were interesting differences in the evolutionary trajectories identified.

[2] = tested on: Enterobacter species; conditions: some Enterobacter species, after exposure to gradually increasing concentrations; cited from earlier work
[3] = tested on: P. aeruginosa PAO1; conditions: cited from earlier work

C[C@H]1c2cccc(O)c2C(O)=C2C(=O)[C@]3(O)C(O)=C(C(N)=O)C(=O)[C@@H](N(C)C)[C@@H]3[C@@H](O)[C@@H]21 [DOX]
MIC of DOX ([1]; F (batch), end-point isolate 1-1): >16 µg/mL
MIC of DOX ([1]; F (batch), end-point isolate 1-2): 16 µg/mL
MIC of DOX ([1]; F (batch), end-point isolate 1-3): 16 µg/mL
MIC of DOX ([1]; F (batch), end-point isolate 2-1): 16 µg/mL
MIC of DOX ([1]; F (batch), end-point isolate 2-2): 16 µg/mL
MIC of DOX ([1]; F (batch), end-point isolate 2-3): >16 µg/mL
MIC of DOX ([1]; F (batch), end-point isolate 3-1): 16 µg/mL
MIC of DOX ([1]; F (batch), end-point isolate 3-2): 16 µg/mL
MIC of DOX ([1]; F (batch), end-point isolate 3-3): 16 µg/mL
MIC of DOX ([1]; F (batch), end-point isolate 4-1): 16 µg/mL
MIC of DOX ([1]; F (batch), end-point isolate 4-2): 16 µg/mL
MIC of DOX ([1]; F (batch), end-point isolate 4-3): >16 µg/mL
MIC of DOX ([1]; F (batch), end-point isolate 5-1): 16 µg/mL
MIC of DOX ([1]; F (batch), end-point isolate 5-2): >16 µg/mL
MIC of DOX ([1]; F (batch), end-point isolate 5-3): >16 µg/mL
MIC of DOX ([1]; F (batch), isolate C1 (no drug control)): 4 µg/mL
MIC of DOX ([1]; F (batch), isolate C2 (no drug control)): 4 µg/mL
MIC of DOX ([1]; F (batch), isolate C3 (no drug control)): 4 µg/mL
MIC of DOX for the ancestor ([1]; ancestor E. coli BW25113): 4 µg/mL
MIC of DOX ([1]; microemulsion D1, end-point isolate 1-1): 8 µg/mL
MIC of DOX ([1]; microemulsion D1, end-point isolate 1-2): 8 µg/mL
MIC of DOX ([1]; microemulsion D1, end-point isolate 1-3): 8 µg/mL
MIC of DOX ([1]; microemulsion D1, end-point isolate 2-1): 16 µg/mL
MIC of DOX ([1]; microemulsion D1, end-point isolate 2-2): 16 µg/mL
MIC of DOX ([1]; microemulsion D1, end-point isolate 2-3): 16 µg/mL
MIC of DOX ([1]; microemulsion D1, end-point isolate 3-1): 16 µg/mL
MIC of DOX ([1]; microemulsion D1, end-point isolate 3-2): 16 µg/mL
MIC of DOX ([1]; microemulsion D1, end-point isolate 3-3): 16 µg/mL
MIC of DOX ([1]; microemulsion D1, end-point isolate 4-1): 16 µg/mL
MIC of DOX ([1]; microemulsion D1, end-point isolate 4-2): >16 µg/mL
MIC of DOX ([1]; microemulsion D1, end-point isolate 4-3): 16 µg/mL
MIC of DOX ([1]; microemulsion D1, end-point isolate 5-1): 16 µg/mL
MIC of DOX ([1]; microemulsion D1, end-point isolate 5-2): 16 µg/mL
MIC of DOX ([1]; microemulsion D1, end-point isolate 5-3): 16 µg/mL
MIC of DOX ([1]; microemulsion D1, isolate C1 (no drug control)): 4 µg/mL
MIC of DOX ([1]; microemulsion D1, isolate C2 (no drug control)): 4 µg/mL
MIC of DOX ([1]; microemulsion D1, isolate C3 (no drug control)): 4 µg/mL
MIC of DOX ([1]; microemulsion D2, end-point isolate 1-1): 16 µg/mL
MIC of DOX ([1]; microemulsion D2, end-point isolate 1-2): 16 µg/mL
MIC of DOX ([1]; microemulsion D2, end-point isolate 1-3): 16 µg/mL
MIC of DOX ([1]; microemulsion D2, end-point isolate 2-1): 16 µg/mL
MIC of DOX ([1]; microemulsion D2, end-point isolate 2-2): 16 µg/mL
MIC of DOX ([1]; microemulsion D2, end-point isolate 2-3): 16 µg/mL
MIC of DOX ([1]; microemulsion D2, end-point isolate 3-1): 16 µg/mL
MIC of DOX ([1]; microemulsion D2, end-point isolate 3-2): 16 µg/mL
MIC of DOX ([1]; microemulsion D2, end-point isolate 3-3): 16 µg/mL
MIC of DOX ([1]; microemulsion D2, end-point isolate 4-1): 16 µg/mL
MIC of DOX ([1]; microemulsion D2, end-point isolate 4-2): 16 µg/mL
MIC of DOX ([1]; microemulsion D2, end-point isolate 4-3): 16 µg/mL
MIC of DOX ([1]; microemulsion D2, end-point isolate 5-1): 16 µg/mL
MIC of DOX ([1]; microemulsion D2, end-point isolate 5-2): 16 µg/mL
MIC of DOX ([1]; microemulsion D2, end-point isolate 5-3): 16 µg/mL
MIC of DOX ([1]; microemulsion D2, isolate C1 (no drug control)): 4 µg/mL
MIC of DOX ([1]; microemulsion D2, isolate C2 (no drug control)): 4 µg/mL
MIC of DOX ([1]; microemulsion D2, isolate C3 (no drug control)): 4 µg/mL
MIC of DOX ([1]; microemulsion D3, end-point isolate 1-1): 16 µg/mL
MIC of DOX ([1]; microemulsion D3, end-point isolate 1-2): 16 µg/mL
MIC of DOX ([1]; microemulsion D3, end-point isolate 1-3): 16 µg/mL
MIC of DOX ([1]; microemulsion D3, end-point isolate 2-1): 8 µg/mL
MIC of DOX ([1]; microemulsion D3, end-point isolate 2-2): 16 µg/mL
MIC of DOX ([1]; microemulsion D3, end-point isolate 2-3): 8 µg/mL
MIC of DOX ([1]; microemulsion D3, end-point isolate 3-1): 16 µg/mL
MIC of DOX ([1]; microemulsion D3, end-point isolate 3-2): 8 µg/mL
MIC of DOX ([1]; microemulsion D3, end-point isolate 3-3): 16 µg/mL
MIC of DOX ([1]; microemulsion D3, end-point isolate 4-1): 16 µg/mL
MIC of DOX ([1]; microemulsion D3, end-point isolate 4-2): 16 µg/mL
MIC of DOX ([1]; microemulsion D3, end-point isolate 4-3): 16 µg/mL
MIC of DOX ([1]; microemulsion D3, end-point isolate 5-1): 16 µg/mL
MIC of DOX ([1]; microemulsion D3, end-point isolate 5-2): 16 µg/mL
MIC of DOX ([1]; microemulsion D3, end-point isolate 5-3): 16 µg/mL
MIC of DOX ([1]; microemulsion D3, isolate C1 (no drug control)): 4 µg/mL
MIC of DOX ([1]; microemulsion D3, isolate C2 (no drug control)): 4 µg/mL
MIC of DOX ([1]; microemulsion D3, isolate C3 (no drug control)): 4 µg/mL
MIC of DOX ([1]; microemulsion D4, end-point isolate 4-1): 16 µg/mL
MIC of DOX ([1]; microemulsion D4, end-point isolate 4-2): 16 µg/mL
MIC of DOX ([1]; microemulsion D4, end-point isolate 4-3): 16 µg/mL
MIC of DOX ([1]; microemulsion D4, end-point isolate 5-1): 16 µg/mL
MIC of DOX ([1]; microemulsion D4, end-point isolate 5-2): 16 µg/mL
MIC of DOX ([1]; microemulsion D4, end-point isolate 5-3): 8 µg/mL
MIC of DOX ([1]; microemulsion D4, isolate C1 (no drug control)): 4 µg/mL
MIC of DOX ([1]; microemulsion D4, isolate C2 (no drug control)): 4 µg/mL
MIC of DOX ([1]; microemulsion D4, isolate C3 (no drug control)): 4 µg/mL
MIC of DOX ([1]; microemulsion D5, end-point isolate 1-1): 16 µg/mL
MIC of DOX ([1]; microemulsion D5, end-point isolate 1-2): >16 µg/mL
MIC of DOX ([1]; microemulsion D5, end-point isolate 1-3): 16 µg/mL
MIC of DOX ([1]; microemulsion D5, end-point isolate 2-1): >16 µg/mL
MIC of DOX ([1]; microemulsion D5, end-point isolate 2-2): 16 µg/mL
MIC of DOX ([1]; microemulsion D5, end-point isolate 2-3): 16 µg/mL
MIC of DOX ([1]; microemulsion D5, end-point isolate 3-1): >16 µg/mL
MIC of DOX ([1]; microemulsion D5, end-point isolate 3-2): 16 µg/mL
MIC of DOX ([1]; microemulsion D5, end-point isolate 3-3): >16 µg/mL
MIC of DOX ([1]; microemulsion D5, isolate C1 (no drug control)): 4 µg/mL
MIC of DOX ([1]; microemulsion D5, isolate C2 (no drug control)): 4 µg/mL
MIC of DOX ([1]; microemulsion D5, isolate C3 (no drug control)): 4 µg/mL

benzalkonium chloride
increase in minimum inhibitory concentration [2]: 5-300 fold

O=C(N[C@H](CO)[C@H](O)c1ccc([N+](=O)[O-])cc1)C(Cl)Cl [chloramphenicol]
MIC [3]: 32 µg/mL (≈ 99 µM)

From patent publication US20230295560A1, “SYNTHETIC ECOLOGIES FOR DRUG DISCOVERY” (priority 2021, published 2023)
